Source: PMC6396024, “Artemin and an Artemin-Derived Peptide, Artefin, Induce Neuronal Survival, and Differentiation Through Ret and NCAM” (Frontiers in Molecular Neuroscience, 2019)
Bridge positions count the residues as written; N and C are the ends. Ends that are not written are not given here. I, II: the chains in the order shown.

B1: recombinant human Artemin (ARTN) (ligand, UniProt Q5T4W7 108-220, looked up)
chain: AGGPGSRARAAGARGCRLRSQLVPVRALGLGHRSDELVRFRFCSGSCRRARSPHDLSLASLLGAGALRPPPGSRPVSQPCCRPTRYEAVSFMDVNSTWRTVDRLSATACGCLG
notes: Artemin (ARTN), human, UniProt D3DPX9; source: bought: R&D Systems

Experiments:
[1] = tested on: cerebellar granule neurons (CGNs); experiment: Neurite outgrowth assay in CGNs; format: cell-based, Wistar rat; details: 24 h; for maximum level of neurite outgrowth: untreated control = 100%, mean of four independent experiments; for neurite outgrowth, single agent in competition assay: ARTN 2.1 nM alone or artefin 4.2 μM alone, paired t-test versus control; for overall neuritogenic effect: ARTN 0.013–2.1 nM, artefin 0.16–37.9 μM, one-way ANOVA
Experimental: Cerebellar granule neurons (CGNs) were prepared from 7-day-old Wistar rat pups (Charles River Laboratories, Sulzfeld, Germany) as previously described ([Schousboe et al., 1989]). Briefly, pups were decapitated, and the cerebellum was removed and cleared from blood vessels and meninges in ice-cold modified Krebs-Ringer buffer. The cerebellum was dissociated by chopping and trypsinization. Cells were washed in Krebs-Ringer buffer containing DNAse I (Sigma, St. Louis, MO, United States) and soybean trypsin inhibitor (Sigma) to stop trypsinization, and the remaining tissue pieces were pelleted by centrifugation. Cells were then washed in Krebs-Ringer buffer containing Ca^2+ and Mg^2+ and re-suspended in appropriate Neurobasal^TM medium (Invitrogen, Taastrup, Denmark) with supplements depending on the experiment.
Cerebellar granule neurons CGNs were re-suspended in Neurobasal^TM medium supplemented with 2% (v/v) B27, 0.5% (v/v) glutamax, 100 U/ml penicillin, 100 μg/ml streptomycin, 0.4% (w/v) BSA, and 20 mM HEPES and were seeded in 8-well LabTek Permanox chamber slides (Nunc) at a density of 1 × 10^4 cells/cm^2. Various concentrations of ARTN, artefin, scrambled artefin, or reversed artefin were added to neurons immediately after seeding. For the RET inhibition assay, the inhibitory goat anti-mouse RET antibody (4.1 μg/ml; R&D systems, Abingdon, United Kingdom) or control goat IgG (4.1 μg/ml; Santa Cruz Biotechnology, Dallas, TX, United States) were added to neurons 1 h before stimulation with ARTN (0.042 nM) […]. For the competition assay between growth factor and mimetic peptide, a combination of ARTN (2.1 nM) and artefin (4.2 μM) was added to the cells immediately after seeding. To inhibit Fibroblast growth factor receptor (FGFR) pharmacologically, inhibitor of FGFR, SU5402 (Sigma), was added to the growth medium in serial dilutions of 20, 40, and 80 μM immediately after plating of CGNs, followed by addition of either P2-d (8 μg/ml), ARTN (0.21 nM), or artefin (1.4 μM) 1 h after the plating.
To estimate neurite outgrowth, neurons were fixated 24 h after stimulation and stained with rabbit anti-growth-associated-protein-43 (GAP-43) antibody (Chemicon International, Inc., Temecula, CA, United States) or anti-GFP antibody (for transfection experiment) overnight at 4°C followed by incubation with secondary Alexa-conjugated goat anti-rabbit antibodies (Invitrogen, Taastrup, Denmark). In case of experiments with plasmid transfection, the transfection efficiency was ca. 20% of total cells and the neurite outgrowth was evaluated only in GFP-positive, i.e., transfected, cells. For representative pictures, cells were additionally co-stained with Hoechst 33258.
Computer-assisted fluorescent microscopy was performed using a Nikon Diaphot 300 inverted microscope (Nikon) equipped with a Nikon Plan 20× objective and coupled to a video camera (Grundig Electronics, Germany). For each condition in each experiment, including the experiment with transfections, images of approximately 200 cells were recorded in systematic series of fields of view, and neurite outgrowth was quantified using a stereological approach as previously described ([Rønn et al., 2000]).
FIGURE 3 Neurite outgrowth induced by ARTN (A), artefin-dendrimer (B), and artefin-monomer (C) in CGNs. Cells were stimulated with ARTN (0.013, 0.042, 0.13, 0.42, and 2.1 nM) or artefin (0.16, 0.47, 1.4, 4.2, 12.6, and 37.9 μM) for 24 h. For the unstimulated control, the absolute length of neurites was 11.47 ± 1.5 μm. Results from four independent experiments are expressed as percentage of untreated control set to 100% and presented as mean ± SEM. The mean neurite outgrowth lengths were compared using one-way ANOVA for repeated measurements. The effect of individual concentrations of ARTN and artefin was compared to control using one-way ANOVA with Dunnett’s post-hoc test, ^∗p < 0.05; ^∗∗p < 0.01. […]

RET = RET phosphorylation assay in PC12-E2 cells; format: cell-based; details: PC12-E2, 10 min; ARTN 2.1 nM, artefin 12.64 μM; phosphotyrosine/total RET by immunoblot; control = 100%
Experimental: The pheochromocytoma cell line PC12-E2 (gift from Dr. Klaus Seedorf, Hagedorn Research Institute, Gentofte Municipality, Denmark) was propagated in Dulbecco’s modified Eagle’s medium (DMEM) supplemented with 5% (v/v) fetal calf serum (FCS), 10% (v/v) horse serum (HS), 1% (v/v) glutamax, 100 U/ml penicillin, and 100 μg/ml streptomycin. Cells were grown at 37°C in a humidified atmosphere containing 5% CO2.
Phosphorylation of RET was assayed in PC12-E2 cells. Cells were seeded at a density of 7 × 10^4 cells/cm^2 in 6 cm cell culture dishes (Nunc) and grown for 24 h. Cells were then grown in starvation medium (growth media with FCS switched to 1%) for 4 h before being stimulated with recombinant human ARTN (2.1 nM) or artefin (12.64 μM) for 10 min. Non-stimulated cells served as a control. Cell lysates were separated by SDS-polyacrylamide gel electrophoresis (SDS-PAGE) and transferred to an Immobilon-P membrane (Millipore, Billerica, MA, United States). Membranes were stained with mouse anti-phosphotyrosine antibody (BD Transduction Lab, New York City, NY, United States; 1:500) or RET (goat anti-mouse antibody, R&D systems, 1:500), followed by incubation with HRP-conjugated anti-mouse IgG. […] RET phosphorylation was determined as the ratio between phosphorylated and total RET. […]

Row | Molecule | concentration of maximum neurite outgrowth ([1]; artefin as dendrimer) [µM] | neurite outgrowth compared to ARTN ([1]; artefin dendrimer, higher length of neurites) | maximum level of neurite outgrowth ([1]; artefin as dendrimer) | neurite outgrowth, single agent in competition assay [1] | overall neuritogenic effect [1] | neurite outgrowth effect of artefin in the presence of ARTN ([1]; artefin 4.2 μM co-incubated with ARTN 2.1 nM, p < 0.001 versus artefin alone) | neurite outgrowth, sequence specificity ([1]; tetramers, 4.2 μM, paired t-test versus untreated control) | RET phosphorylation compared to unstimulated control (RET) [%] | concentration of maximum neurite outgrowth [1] [µM] | dose-response of neurite outgrowth ([1]; 0.013–2.1 nM)
1 | I: RSPHDLSLASLLGAGKK-NH2 / II: RSPHDLSLASLLGAGK / III: RSPHDLSLASLLGAG / IV: RSPHDLSLASLLGAG (amide I:16-IV:C, I:17-II:C, II:16-III:C; C-terminus assumed) [artefin] | 4.2 | more effective (higher length of neurites) than ARTN | 404 % of control | significant increase in neurite outgrowth (p < 0.001) | statistically significant (F = 9.723, p < 0.0001) | eliminated | statistically significant increase in neurite length when compared to the control condition (p < 0.01) | ~500 | – | –
2 | B1 | – | – | 210 % of control | equivalent to that of the control condition | statistically significant (F = 5.069, p < 0.01) | – | – | ~600 | 4.2e-05 | bell-shaped dose-response manner
